28 molecules from ChEMBL document CHEMBL1275351, “Novel spirotetracyclic zwitterionic dual H(1)/5-HT(2A) receptor antagonists for the treatment of sleep disorders” (J Med Chem, 2010) can be followed below.

The target in one experiment is Histamine H1 receptor (Homo sapiens, UniProt P35367). The experiment can be described thus: Antagonist activity against human histamine H1 receptor expressed in CHO cells by FLIPR assay. The class given is functional, cell-based.
Experiment [1] addresses 5-hydroxytryptamine receptor 2A (Homo sapiens, UniProt P28223). Nature of the experiment: Antagonist activity at human 5HT2A receptor expressed in HEK cells assessed as inhibition of intracellular calcium accumulation by aequorin assay. It is filed as functional, cell-based, HEK293.
In experiment [2] the target is 5-hydroxytryptamine receptor 2B (Homo sapiens, UniProt P41595). The experiment can be described thus: Antagonist activity at human 5HT2B receptor expressed in human SH-SY5Y cells by FLIPR assay.
Experiment [3] concerns the target T1, 5-hydroxytryptamine receptor 2C (Homo sapiens, UniProt P28335).
T1 sequence (P28335 whole entry): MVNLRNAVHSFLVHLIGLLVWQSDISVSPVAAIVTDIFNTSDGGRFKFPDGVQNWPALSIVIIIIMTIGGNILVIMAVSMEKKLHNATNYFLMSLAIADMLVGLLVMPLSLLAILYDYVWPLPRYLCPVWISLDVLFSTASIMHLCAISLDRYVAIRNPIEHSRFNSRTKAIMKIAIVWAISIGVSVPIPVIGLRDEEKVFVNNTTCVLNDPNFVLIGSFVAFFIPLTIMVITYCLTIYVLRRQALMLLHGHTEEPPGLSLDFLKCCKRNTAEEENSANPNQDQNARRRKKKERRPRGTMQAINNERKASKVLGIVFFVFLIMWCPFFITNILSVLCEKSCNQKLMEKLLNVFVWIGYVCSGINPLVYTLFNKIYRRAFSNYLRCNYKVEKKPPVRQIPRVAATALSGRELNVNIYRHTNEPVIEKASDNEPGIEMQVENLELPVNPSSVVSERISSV
The experiment can be described thus: Antagonist activity at human 5HT2C receptor expressed in human SH-SY5Y cells by FLIPR assay. The class given is functional, cell-based.

Experiment [4] has as its target Voltage-gated inwardly rectifying potassium channel KCNH2 (Homo sapiens, UniProt Q12809). Nature of the experiment: Displacement of [3H]dofetilide from human ERG by scintillation proximity assay.

SMILES strings stand for the structures. pIC50, pKi: −log10 of the molar value. Some results are limits rather than exact numbers.

Chain of 5-hydroxytryptamine receptor 2A (P28223 whole entry): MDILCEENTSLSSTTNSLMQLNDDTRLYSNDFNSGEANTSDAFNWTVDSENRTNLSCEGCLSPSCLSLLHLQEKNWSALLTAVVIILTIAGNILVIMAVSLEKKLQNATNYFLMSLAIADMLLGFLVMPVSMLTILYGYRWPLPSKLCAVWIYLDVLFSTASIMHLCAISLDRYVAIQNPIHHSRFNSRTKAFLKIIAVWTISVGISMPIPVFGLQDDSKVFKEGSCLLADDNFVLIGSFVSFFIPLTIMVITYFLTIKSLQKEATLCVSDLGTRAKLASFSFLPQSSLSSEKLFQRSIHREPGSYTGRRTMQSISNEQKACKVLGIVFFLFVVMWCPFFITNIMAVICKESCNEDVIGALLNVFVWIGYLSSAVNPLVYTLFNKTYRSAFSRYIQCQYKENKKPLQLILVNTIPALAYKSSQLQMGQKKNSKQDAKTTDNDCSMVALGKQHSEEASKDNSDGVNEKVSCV
Chain of 5-hydroxytryptamine receptor 2B (P41595 whole entry): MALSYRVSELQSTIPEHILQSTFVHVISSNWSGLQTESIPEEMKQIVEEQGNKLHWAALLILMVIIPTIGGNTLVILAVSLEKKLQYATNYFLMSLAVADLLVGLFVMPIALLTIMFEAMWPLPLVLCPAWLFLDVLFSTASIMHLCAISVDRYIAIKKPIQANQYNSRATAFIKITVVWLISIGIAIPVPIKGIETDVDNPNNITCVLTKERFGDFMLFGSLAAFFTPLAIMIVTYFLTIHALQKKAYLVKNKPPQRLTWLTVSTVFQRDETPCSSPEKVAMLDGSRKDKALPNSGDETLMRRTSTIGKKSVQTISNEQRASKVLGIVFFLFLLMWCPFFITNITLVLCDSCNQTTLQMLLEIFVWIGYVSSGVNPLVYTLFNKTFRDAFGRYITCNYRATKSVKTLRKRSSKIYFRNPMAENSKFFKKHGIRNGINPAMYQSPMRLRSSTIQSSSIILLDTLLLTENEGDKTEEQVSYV
Chain of Histamine H1 receptor (P35367 whole entry): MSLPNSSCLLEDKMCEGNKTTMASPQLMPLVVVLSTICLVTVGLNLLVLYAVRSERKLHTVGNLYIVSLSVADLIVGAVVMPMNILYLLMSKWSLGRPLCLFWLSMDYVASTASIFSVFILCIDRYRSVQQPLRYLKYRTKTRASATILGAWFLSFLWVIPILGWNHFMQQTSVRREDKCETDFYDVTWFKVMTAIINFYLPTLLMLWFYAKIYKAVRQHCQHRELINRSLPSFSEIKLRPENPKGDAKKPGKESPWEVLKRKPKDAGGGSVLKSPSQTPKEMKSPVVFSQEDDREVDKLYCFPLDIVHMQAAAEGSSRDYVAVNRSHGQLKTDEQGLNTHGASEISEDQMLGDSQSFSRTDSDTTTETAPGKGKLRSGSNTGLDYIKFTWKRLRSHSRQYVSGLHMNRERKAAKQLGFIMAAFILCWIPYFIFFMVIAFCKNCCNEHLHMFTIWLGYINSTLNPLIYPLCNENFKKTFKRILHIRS
Chain of Voltage-gated inwardly rectifying potassium channel KCNH2 (Q12809 whole entry): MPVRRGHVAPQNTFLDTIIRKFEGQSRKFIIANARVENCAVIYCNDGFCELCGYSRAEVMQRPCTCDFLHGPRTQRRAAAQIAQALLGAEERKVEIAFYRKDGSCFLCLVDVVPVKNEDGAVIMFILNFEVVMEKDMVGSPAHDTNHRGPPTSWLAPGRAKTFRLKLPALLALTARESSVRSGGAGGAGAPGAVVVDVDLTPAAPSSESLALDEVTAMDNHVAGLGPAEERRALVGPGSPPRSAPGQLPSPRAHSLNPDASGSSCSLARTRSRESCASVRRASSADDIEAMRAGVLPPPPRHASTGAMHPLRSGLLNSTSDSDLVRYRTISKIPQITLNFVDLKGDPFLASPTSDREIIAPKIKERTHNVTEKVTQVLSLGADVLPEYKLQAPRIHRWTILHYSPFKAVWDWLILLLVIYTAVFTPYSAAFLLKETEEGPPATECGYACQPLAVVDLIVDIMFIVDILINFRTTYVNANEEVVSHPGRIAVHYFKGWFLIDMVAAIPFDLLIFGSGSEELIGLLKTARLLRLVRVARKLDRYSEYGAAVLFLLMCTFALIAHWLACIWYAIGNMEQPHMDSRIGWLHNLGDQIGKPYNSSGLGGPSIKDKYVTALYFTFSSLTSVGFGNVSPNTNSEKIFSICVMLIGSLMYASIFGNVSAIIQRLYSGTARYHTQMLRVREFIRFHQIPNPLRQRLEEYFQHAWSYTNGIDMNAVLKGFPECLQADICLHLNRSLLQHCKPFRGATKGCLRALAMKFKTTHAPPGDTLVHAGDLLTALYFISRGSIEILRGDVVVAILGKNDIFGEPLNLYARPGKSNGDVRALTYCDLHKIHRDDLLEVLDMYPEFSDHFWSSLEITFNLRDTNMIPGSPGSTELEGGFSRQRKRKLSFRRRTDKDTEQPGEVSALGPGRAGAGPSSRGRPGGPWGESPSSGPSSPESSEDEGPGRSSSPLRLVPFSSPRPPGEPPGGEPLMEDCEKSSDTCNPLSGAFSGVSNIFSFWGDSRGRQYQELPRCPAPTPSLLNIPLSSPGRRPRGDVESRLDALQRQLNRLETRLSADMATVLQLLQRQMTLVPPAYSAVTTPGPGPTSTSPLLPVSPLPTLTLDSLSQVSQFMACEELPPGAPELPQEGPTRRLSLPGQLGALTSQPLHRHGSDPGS

As to `O=C(O)CC1CCN(C2CC[C@]3(Cc4ccccc4Cc4ccccc43)C2)C1` (some centres not stated), the pKi at Histamine H1 receptor was 7.50; in experiment [1], 7.70; in experiment [2], 6.00; in experiment [3] it was 7.70.

For `O=C(O)[C@H]1[C@@H]2CN(C3CCC4(Cc5ccccc5Cc5ccccc54)C3)C[C@@H]21` (some centres not stated), the pKi at Histamine H1 receptor was 7.40; in experiment [1], 6.20; in experiment [2] it was below 5.70; in experiment [3], below 5.70.

With `O=C(O)CC1CN(C2CCC3(Cc4ccccc4Cc4ccccc43)C2)C1` (configuration not stated), the pKi on Histamine H1 receptor was 6.50; in experiment [1] it was 7.30; in experiment [2], 7.40; in experiment [3], below 5.70.

Consider `O=C(O)C=C1CN(C2CCC3(Cc4ccccc4Cc4ccccc43)C2)C1` (configuration not stated), for which the pKi at Histamine H1 receptor is 6.70; in experiment [1], 7.30; in experiment [2] it was 6.60; in experiment [3], 6.60.

As to `O=C(O)C1=CCCN(C2CCC3(Cc4ccccc4Oc4ccccc43)C2)C1` (configuration not stated), the pKi at Histamine H1 receptor was 7.00; in experiment [1], 6.40; in experiment [2], below 5.70; in experiment [3], below 5.70.

Turning to `O=C(O)C1CCN(C2CCC3(Cc4ccccc4Oc4ccccc43)C2)CC1` (configuration not stated), the pKi on Histamine H1 receptor is 7.10; in experiment [1], 6.50; in experiment [2], 5.80.

As to `O=C(O)C1(F)CCN(C2CCC3(Cc4ccccc4Oc4ccccc43)C2)CC1` (configuration not stated), the pKi at Histamine H1 receptor is 6.80; in experiment [1], 6.40; in experiment [2] it was below 5.70; in experiment [3], below 5.70.

On to `O=C(O)[C@@H]1CCCN(C2CCC3(Cc4ccccc4Oc4ccccc43)C2)C1` (some centres not stated), for which the pKi is 6.90 at Histamine H1 receptor, 7.00 in experiment [1] and below 5.70 in experiment [2].

For the molecule `O=C(O)C1=CCCN(C2CCC3(C2)C(=O)c2ccccc2Cc2ccccc23)C1` (configuration not stated), the pKi at Histamine H1 receptor was 7.10; in experiment [1], below 5.70; in experiment [3] it was below 5.70.

As for `O=C(O)C1CCN(C2CCC3(C2)C(=O)c2cc(Cl)ccc2Oc2ccccc23)CC1` (configuration not stated), the pKi is 6.00 at Histamine H1 receptor, 6.40 in experiment [1] and below 5.70 in experiment [2].

As to `O=C(O)C1CCN(C2CCC3(C2)C(=O)c2cc(F)ccc2Sc2ccccc23)CC1` (configuration not stated), the pKi at Histamine H1 receptor is 6.70; in experiment [1], 6.90; in experiment [2], below 5.70; in experiment [3] it was below 5.70.

For `O=C(O)[C@@H]1CCCN(C2CCC3(C2)C(=O)c2cc(Cl)ccc2Oc2ccccc23)C1` (some centres not stated), the pKi on Histamine H1 receptor was 6.70; in experiment [1] it was below 5.70; in experiment [2] it was below 5.70.

On to `O=C(O)[C@@H]1CCCN(C2CC[C@]3(Cc4ccccc4Cc4ccccc43)C2)C1` (some centres not stated), for which the pKi was 7.70 at Histamine H1 receptor, 7.20 in experiment [1], 5.90 in experiment [2] and 7.50 in experiment [3].

`O=C(O)CC1CCN(C2CCC3(Cc4ccccc4Cc4ccccc43)C2)CC1` (configuration not stated): the pKi at Histamine H1 receptor was 7.60; in experiment [1] it was 6.20; in experiment [2], 6.00; in experiment [3], below 5.60.

On to `O=C(O)C1(O)CCN(C2CCC3(Cc4ccccc4Cc4ccccc43)C2)CC1` (configuration not stated), for which the pKi is 7.30 on Histamine H1 receptor, 7.00 in experiment [1], 6.60 in experiment [2] and 6.90 in experiment [3].

Turning to `CC1(C(=O)O)CCN(C2CCC3(Cc4ccccc4Cc4ccccc43)C2)CC1` (configuration not stated), the negative logarithm of the Ki (pKi) is 7.30 at Histamine H1 receptor, 7.40 in experiment [1], 8.50 in experiment [2] and 7.80 in experiment [3].

Turning to `O=C(O)C1=CCN(C2CCC3(Cc4ccccc4Cc4ccccc43)C2)CC1` (configuration not stated), the negative logarithm of the Ki (pKi) on Histamine H1 receptor is 7.40; in experiment [1], 7.10; in experiment [2], below 5.70; in experiment [3], 6.70.

As for `O=C(O)C1=CCCN(C2CCC3(Cc4cc(F)ccc4Cc4ccccc43)C2)C1` (configuration not stated), the pKi at Histamine H1 receptor was 7.40; in experiment [1], below 6.12; in experiment [2] it was below 5.70; in experiment [3] it was 6.50.

Take `O=C(O)C1(F)CCCN(C2CC[C@]3(Cc4ccccc4Cc4ccccc43)C2)C1` (some centres not stated): the pKi at Histamine H1 receptor is 6.10; in experiment [1], 7.10; in experiment [2] it was below 5.70; in experiment [3] it was 5.80.

Take `O=C(O)C1=CCCN(C2CC[C@@]3(Cc4ccccc4Cc4ccccc43)C2)C1` (some centres not stated): the pKi was 6.80 at Histamine H1 receptor, 5.40 in experiment [1], below 5.70 in experiment [2] and below 5.70 in experiment [3].

Regarding `O=C(O)C1CN(C2CC[C@]3(Cc4ccccc4Cc4ccccc43)C2)CCO1` (some centres not stated), the pKi on Histamine H1 receptor is 7.20; in experiment [1] it was 7.00; in experiment [2], below 5.70; in experiment [3], 6.50.

On to `O=C(O)C1CN(C2CC[C@]3(Cc4ccccc4Cc4ccccc43)C2)CCN1` (some centres not stated), for which the pKi on Histamine H1 receptor was 7.00; in experiment [1] it was 6.50; in experiment [2] it was 5.90; in experiment [3], 6.70.

For `O=C(O)CCNC1CC[C@]2(Cc3ccccc3Cc3ccccc32)C1` (some centres not stated), the pKi on Histamine H1 receptor was 8.00; in experiment [1], 6.80; in experiment [2] it was below 5.70; in experiment [3], 7.00. This molecule showed a pIC50 in experiment [4] of 4.20.

`O=C(O)CCNC1CC[C@@]2(Cc3ccccc3Cc3ccccc32)C1` (some centres not stated): the negative logarithm of the Ki (pKi) was 7.60 at Histamine H1 receptor, 5.70 in experiment [1], below 5.70 in experiment [2] and below 5.70 in experiment [3]. Besides, the pIC50 in experiment [4] is below 4.20.

With `O=C(O)C1CCN(C2CC[C@]3(Cc4ccccc4Cc4ccccc43)C2)C1` (some centres not stated), the pKi on Histamine H1 receptor was 7.80; in experiment [1], 7.70; in experiment [2], 7.00; in experiment [3], 7.80.

For `CC1(C(=O)O)CCN(C2CC[C@]3(Cc4ccccc4Cc4ccccc43)C2)C1` (some centres not stated), the pKi is 7.90 on Histamine H1 receptor, 7.90 in experiment [1], 8.00 in experiment [2] and 7.70 in experiment [3].

Take `O=C(O)C1=CCCN(C2CC[C@]3(Cc4ccccc4Cc4ccccc43)C2)C1` (stereo in doubt; 48): the pKi on Histamine H1 receptor was 7.70; in experiment [1], below 5.70; in experiment [2], below 5.70; in experiment [3], below 5.70.

As to `CN1CCC(=C2c3ccccc3CC(=O)c3sccc32)CC1` [KETOTIFEN], the pKi in experiment [2] was 7.50; in experiment [3], 6.70.
